From patent publication US20240207285A1 (Melt Pharmaceuticals, Inc., priority 2022, published 2024)

How the values were obtained:
[1] = system: subjects undergoing cataract extraction with lens replacement (CELR); experiment: Phase 2 subjects achieving procedural sedation (RSS 2 or 3 without rescue); type: in vivo, human; settings: Visit 2 (Day 1), Full Analysis Set
Method: A Phase 2 efficacy and safety study of the MELT-300 formulation was conducted at nine sites with over 300 enrolled subjects. MELT-300 is a sublingual, needle- and opioid-free formulation for procedural sedation during cataract surgery. […] MELT-300 utilizes fast-dissolving delivery technology (Zydis®, Catalent Inc.) to rapidly dissolve the tablet for absorption across the sublingual mucosa.
(§1) The Phase 2 study was factorial-designed, randomized, double-blind, placebo-controlled, and included parallel-cohorts. […] Primary efficacy endpoints included appropriate sedation during the cataract surgery and management of intraoperative pain during the surgery.
Achievement of procedural sedation was evaluated for each subject (see TABLE 19). Success for procedural sedation for this Phase 2 study was defined as achieving target sedation level (Ramsay Sedation Scale (RSS) scale level 2 or 3) at the start of surgery without the need for rescue sedation medication, and no need for intraoperative rescue sedation medication to maintain target sedation level.

[2] = system: subjects undergoing cataract extraction with lens replacement (CELR); experiment: Phase 2 subjects wanting study drug again for a second surgery (11-point Likert scale); type: in vivo, human
Excerpt: Post-operation, subjects were asked whether they would want the study drug again for a second surgery using an 11-point Likert scale of 0 (not likely at all) to 10 (extremely likely).

[3] = system: subjects undergoing cataract extraction with lens replacement (CELR); experiment: Phase 2 mean intraoperative analgesia by the numeric pain rating scale; type: in vivo, human
Method: An average of the available timepoints was also calculated.

[4] = system: subjects undergoing cataract extraction with lens replacement (CELR); experiment: Phase 2 subjects completing the surgery without interruption; type: in vivo, human; settings: Visit 2 (Day 1); Full Analysis Set
Method: (§2) The number of subjects achieving analgesia response (observed) in the full analysis set was determined. Success in analgesia response was defined as NPRS <4 at the available at the available four intraoperative timepoints and a failure otherwise (e.g., any interoperative pain rescue was assumed to be a failure. Results are provided in TABLE 24. The number of subjects completing the surgery is provided in TABLE 25, and the number of subjects completing the surgery without interruption is provided in TABLE 26. For this measure, subjects completing the surgery without interruption (other than rescue medication) due to pain or anxiety were considered successes. The number of subjects requiring rescue sedative medication and those requiring analgesic medication are provided in TABLES 27 and 28, respectively. For all TABLES 24-28, p-Values between pairs of treatments were calculated and are provided.

[5] = system: subjects undergoing cataract extraction with lens replacement (CELR); experiment: Phase 2 subjects receiving opioid concomitant medication postoperatively; type: in vivo, human
[6] = system: subjects undergoing cataract extraction with lens replacement (CELR); experiment: Phase 2 subjects completing the surgery; type: in vivo, human; settings: Visit 2 (Day 1); Full Analysis Set
Method: as §2

[7] = system: subjects undergoing cataract extraction with lens replacement (CELR); experiment: Phase 2 subjects requiring rescue analgesic medication; type: in vivo, human; settings: Visit 2 (Day 1); Full Analysis Set
Method: as §2

[8] = system: subjects undergoing cataract extraction with lens replacement (CELR); experiment: Phase 2 treatment-emergent ocular adverse events (study eye, non-study eye, either eye); settings: for Eye disorders, % / General disorders and administration site conditions, % / Infections and infestations, % / Injury, poisoning and procedural complications, % / Investigations, %: system organ class
Method: as §1
The study eye (TABLE 31) non-study eye (TABLE 32), or either eye (TABLE 33) was assessed. TEAES were defined as events that started on or after the date of the study drug administration through the end of Visit 4 or early withdrawal. Subjects with one or more adverse event within a level of Medical Dictionary for Regulatory Activities (MedDRA) were counted only once in that level.

[9] = system: subjects undergoing cataract extraction with lens replacement (CELR); experiment: Phase 2 subject-rated worst pain during surgery by the numeric pain rating scale; type: in vivo, human; settings: carry forward
[10] = system: subjects undergoing cataract extraction with lens replacement (CELR); experiment: Phase 2 subjects achieving analgesia response (NPRS <4); type: in vivo, human; settings: Visit 2 (Day 1), observed
Method: as §2

[11] = system: subjects undergoing cataract extraction with lens replacement (CELR); experiment: Phase 2 subjects requiring rescue sedative medication; type: in vivo, human; settings: Visit 2 (Day 1)
Method: as §2

[12] = 11-point Likert scale 0 (not likely at all) to 10 (extremely likely)
[13] = Average of available timepoints, adjusted for site table, carry forward
[14] = Average of available timepoints, carry forward
[15] = Average of available timepoints, observed
[16] = Corneal incision, adjusted for site table, carry forward
[17] = Corneal incision, carry forward
[18] = Insertion of the phacoemulsion probe, adjusted for site table, carry forward
[19] = Insertion of the phacoemulsion probe, carry forward
[20] = Insertion of the phacoemulsion probe, observed
[21] = Insertion of the speculum, adjusted for site table, carry forward
[22] = Insertion of the speculum, carry forward
[23] = Insertion of the speculum, observed
[24] = Insertion of the synthetic replacement lens, adjusted for site table, carry forward
[25] = Insertion of the synthetic replacement lens, carry forward
[26] = Insertion of the synthetic replacement lens, observed
[27] = adjusted for site, carry forward
[28] = carry forward, repeated measures model
[29] = observed, repeated measures model

Cc1ncc2n1-c1ccc(Cl)cc1C(c1ccccc1F)=NC2 [Midazolam 3 mg]
Subjects achieving procedural sedation: No, % [1]: 35.8% | Subjects achieving procedural sedation: Yes, % ([1]; RSS 2 or 3 without rescue sedation): 64.2% | Want Study Drug Again, mean [2, 12]: 8.4 | Want Study Drug Again, median [2, 12]: 10.0 | Want Study Drug Again, Mean Difference versus ketamine ([2]; unpaired t-test): 0.80 | Want Study Drug Again, Mean Difference versus placebo ([2]; unpaired t-test): 0.75 | Intraoperative NPRS, LS Mean ([3]; Average of available timepoints, adjusted for site (study center covariate), carry forward): 2.12 | Intraoperative NPRS, mean [3, 13]: 2.37 | Intraoperative NPRS, median [3, 13]: 2.00 | Intraoperative NPRS, mean [3, 14]: 2.37 | Intraoperative NPRS, median [3, 14]: 2.00 | Intraoperative NPRS, LS Mean ([3]; Average of available timepoints, carry forward, repeated measures model): 2.37 | Intraoperative NPRS, mean [3, 15]: 2.18 | Intraoperative NPRS, median [3, 15]: 2.00 | Intraoperative NPRS, LS Mean ([3]; Average of available timepoints, observed, repeated measures model): 2.46 | Intraoperative NPRS, mean [3, 16]: 1.8 | Intraoperative NPRS, median [3, 16]: 1.0 | Intraoperative NPRS, mean [3, 17]: 1.8 | Intraoperative NPRS, median [3, 17]: 1.0 | Intraoperative NPRS, mean ([3]; Corneal incision, observed): 1.8 | Intraoperative NPRS, median ([3]; Corneal incision, observed): 1.0 | Intraoperative NPRS, mean [3, 18]: 2.9 | Intraoperative NPRS, median [3, 18]: 3.0 | Intraoperative NPRS, mean [3, 19]: 2.9 | Intraoperative NPRS, median [3, 19]: 3.0 | Intraoperative NPRS, mean [3, 20]: 2.5 | Intraoperative NPRS, median [3, 20]: 2.0 | Intraoperative NPRS, mean [3, 21]: 1.1 | Intraoperative NPRS, median [3, 21]: 0.0 | Intraoperative NPRS, mean [3, 22]: 1.1 | Intraoperative NPRS, median [3, 22]: 0.0 | Intraoperative NPRS, mean [3, 23]: 1.1 | Intraoperative NPRS, median [3, 23]: 0.0 | Intraoperative NPRS, mean [3, 24]: 3.6 | Intraoperative NPRS, median [3, 24]: 4.0 | Intraoperative NPRS, mean [3, 25]: 3.6 | Intraoperative NPRS, median [3, 25]: 4.0 | Intraoperative NPRS, mean [3, 26]: 2.9 | Intraoperative NPRS, median [3, 26]: 3.0 | Intraoperative NPRS, LS Mean Difference versus ketamine [3, 27]: 0.22 | Intraoperative NPRS, LS Mean Difference versus placebo [3, 27]: −0.08 | Intraoperative NPRS, LS Mean Difference versus ketamine [3, 28]: 0.20 | Intraoperative NPRS, LS Mean Difference versus placebo [3, 28]: −0.12 | Intraoperative NPRS, LS Mean Difference versus ketamine [3, 29]: 0.24 | Intraoperative NPRS, LS Mean Difference versus placebo [3, 29]: −0.01 | Subjects completing the surgery without interruption: No, % [4]: (0) % | Subjects completing the surgery without interruption: Yes, % [4]: (100.0) % | Received Postoperative Opioid on Day 2: No, % ([5]; Day 2): (100.0) % | Received Postoperative Opioid on Day 2: Yes, % ([5]; Day 2): (0.0) % | Received Postoperative Opioid on Day 2-8: No, % ([5]; Day 2-8): (100.0) % | Received Postoperative Opioid on Day 2-8: Yes, % ([5]; Day 2-8): (0.0) % | Subjects completing the surgery: No, % [6]: 0 (0) % | Subjects completing the surgery: Yes, % [6]: 100.0% | Subjects requiring rescue analgesic medication: No, % [7]: (56.8) % | Subjects requiring rescue analgesic medication: Yes, % [7]: (43.2) % | Cataract operation complication, % ([8]; Either Eye): (0) % | Conjunctivitis bacterial, % ([8]; Either Eye): (0) % | Corneal abrasion, % ([8]; Either Eye): (0) % | Corneal oedema, % ([8]; Either Eye): (0) % | Endophthalmitis, % ([8]; Either Eye): (0) % | Eye pain, % ([8]; Either Eye): (3.4) % | Foreign body sensation in eyes, % ([8]; Either Eye): (0) % | Intraocular pressure increased, % ([8]; Either Eye): (2.3) % | Ocular hypertension, % ([8]; Either Eye): (1.1) % | Pain, % ([8]; Either Eye): (0) % | Paracentesis eye, % ([8]; Either Eye): (0) % | Procedural pain, % ([8]; Either Eye): (1.1) % | Subjects with Any Treatment-Emergent Ocular AEs, % ([8]; Either Eye): (9.2) % | Vision blurred, % ([8]; Either Eye): (1.1) % | Eye disorders, % ([8]; Either Eye): (5.7) % | General disorders and administration site conditions, % ([8]; Either Eye): (0) % | Infections and infestations, % ([8]; Either Eye): (0) % | Injury, poisoning and procedural complications, % ([8]; Either Eye): (1.1) % | Investigations, % ([8]; Either Eye): (2.3) % | Conjunctivitis bacterial, % ([8]; Non-Study Eye): (0) % | Eye pain, % ([8]; Non-Study Eye): (0) % | Subjects with Any Treatment-Emergent Ocular AEs, % ([8]; Non-Study Eye): (1.1) % | Vision blurred, % ([8]; Non-Study Eye): (1.1) % | Eye disorders, % ([8]; Non-Study Eye): (1.1) % | Infections and infestations, % ([8]; Non-Study Eye): (0) % | Cataract operation complication, % ([8]; Study Eye): (0) % | Corneal abrasion, % ([8]; Study Eye): (0) % | Corneal oedema, % ([8]; Study Eye): (0) % | Endophthalmitis, % ([8]; Study Eye): (0) % | Eye pain, % ([8]; Study Eye): (3.4) % | Foreign body sensation in eyes, % ([8]; Study Eye): (0) % | Intraocular pressure increased, % ([8]; Study Eye): (2.3) % | Ocular hypertension, % ([8]; Study Eye): (1.1) % | Pain, % ([8]; Study Eye): (0) % | Procedural pain, % ([8]; Study Eye): (1.1) % | Subjects with Any Treatment-Emergent Ocular AEs, % ([8]; Study Eye): (8.0) % | Eye disorders, % ([8]; Study Eye): (4.6) % | General disorders and administration site conditions, % ([8]; Study Eye): (0) % | Infections and infestations, % ([8]; Study Eye): (0) % | Injury, poisoning and procedural complications, % ([8]; Study Eye): (1.1) % | Investigations, % ([8]; Study Eye): (2.3) % | Paracentesis eye, % ([8]; printed in the Non-Study Eye table): (0) % | Worst Pain During Surgery, Mean Difference versus ketamine [9]: 0.38 | Worst Pain During Surgery, Mean Difference versus placebo [9]: 0.05 | Worst Pain During Surgery (NPRS), mean ([9]; Full Analysis Set): 4.0 | Worst Pain During Surgery (NPRS), median ([9]; Full Analysis Set): 4.0 | Subjects achieving analgesia response: Yes, % ([10]; NPRS <4 at four intraoperative timepoints): 40.7% | Subjects achieving analgesia response: No, % [10]: 59.3% | Subjects requiring rescue sedative medication: No, % ([11]; Full Analysis Set): (65.4) % | Subjects requiring rescue sedative medication: Yes, % ([11]; Full Analysis Set): (34.6) % | Subjects requiring rescue sedative medication: Intraoperatively, % ([11]; Intraoperatively): (8.6) % | Subjects requiring rescue sedative medication: Pre-operatively, % ([11]; Pre-operatively): (25.9) %
